Assay results published in the NIST ThermoML archive (doi:10.1016/j.jct.2017.05.001).

Assay: wn = mass fraction of the nth substance listed
Settings: Liquid; for mass density: Vibrating tube method

CN(C)CCO [2-(N,N-dimethylamino)ethanol] + O
viscosity [mPa·s]
Settings | 313.15 K | 333.15 K
100 kPa, Concentric cylinders viscometry, w1 = 0.1 | – | 0.623
100 kPa, Concentric cylinders viscometry, w1 = 0.2 | – | 0.888
100 kPa, Concentric cylinders viscometry, w1 = 0.3 | – | 1.226
100 kPa, Concentric cylinders viscometry, w1 = 0.4 | – | 1.671
100 kPa, Falling or rolling sphere viscometry, w1 = 0.1005 | – | 0.6336
100 kPa, Falling or rolling sphere viscometry, w1 = 0.202 | – | 0.8725
100 kPa, Falling or rolling sphere viscometry, w1 = 0.3005 | – | 1.217
100 kPa, Falling or rolling sphere viscometry, w1 = 0.3995 | – | 1.651
5000 kPa, Falling or rolling sphere viscometry, w1 = 0.1005 | – | 0.6341
5000 kPa, Falling or rolling sphere viscometry, w1 = 0.202 | – | 0.877
5000 kPa, Falling or rolling sphere viscometry, w1 = 0.3005 | – | 1.223
5000 kPa, Falling or rolling sphere viscometry, w1 = 0.3995 | – | 1.669
10000 kPa, Falling or rolling sphere viscometry, w1 = 0.1005 | – | 0.6372
10000 kPa, Falling or rolling sphere viscometry, w1 = 0.202 | – | 0.8862
10000 kPa, Falling or rolling sphere viscometry, w1 = 0.3005 | – | 1.239
10000 kPa, Falling or rolling sphere viscometry, w1 = 0.3995 | – | 1.695
15000 kPa, Falling or rolling sphere viscometry, w1 = 0.1005 | – | 0.6403
15000 kPa, Falling or rolling sphere viscometry, w1 = 0.202 | – | 0.8907
15000 kPa, Falling or rolling sphere viscometry, w1 = 0.3005 | – | 1.249
15000 kPa, Falling or rolling sphere viscometry, w1 = 0.3995 | – | 1.719
20000 kPa, Falling or rolling sphere viscometry, w1 = 0.1005 | – | 0.6431
20000 kPa, Falling or rolling sphere viscometry, w1 = 0.202 | – | 0.897
20000 kPa, Falling or rolling sphere viscometry, w1 = 0.3005 | – | 1.26
20000 kPa, Falling or rolling sphere viscometry, w1 = 0.3995 | – | 1.742
25000 kPa, Falling or rolling sphere viscometry, w1 = 0.1005 | – | 0.6461
25000 kPa, Falling or rolling sphere viscometry, w1 = 0.202 | – | 0.9026
25000 kPa, Falling or rolling sphere viscometry, w1 = 0.3005 | – | 1.274
25000 kPa, Falling or rolling sphere viscometry, w1 = 0.3995 | – | 1.765
30000 kPa, Falling or rolling sphere viscometry, w1 = 0.1005 | – | 0.6477
30000 kPa, Falling or rolling sphere viscometry, w1 = 0.202 | 1.412 | 0.9063
30000 kPa, Falling or rolling sphere viscometry, w1 = 0.3005 | 2.161 | 1.283
30000 kPa, Falling or rolling sphere viscometry, w1 = 0.3995 | 3.253 | 1.789
40000 kPa, Falling or rolling sphere viscometry, w1 = 0.1005 | 0.957 | 0.6532
40000 kPa, Falling or rolling sphere viscometry, w1 = 0.202 | 1.423 | 0.9178
40000 kPa, Falling or rolling sphere viscometry, w1 = 0.3005 | 2.197 | 1.305
40000 kPa, Falling or rolling sphere viscometry, w1 = 0.3995 | 3.342 | 1.835
60000 kPa, Falling or rolling sphere viscometry, w1 = 0.1005 | 0.9672 | 0.6631
60000 kPa, Falling or rolling sphere viscometry, w1 = 0.202 | 1.45 | 0.9397
60000 kPa, Falling or rolling sphere viscometry, w1 = 0.3005 | 2.273 | 1.353
60000 kPa, Falling or rolling sphere viscometry, w1 = 0.3995 | 3.519 | 1.927
80000 kPa, Falling or rolling sphere viscometry, w1 = 0.1005 | 0.9775 | 0.6729
80000 kPa, Falling or rolling sphere viscometry, w1 = 0.202 | 1.479 | 0.9613
80000 kPa, Falling or rolling sphere viscometry, w1 = 0.3005 | 2.348 | 1.396
80000 kPa, Falling or rolling sphere viscometry, w1 = 0.3995 | 3.698 | 2.019
100000 kPa, Falling or rolling sphere viscometry, w1 = 0.1005 | 0.9881 | 0.685
100000 kPa, Falling or rolling sphere viscometry, w1 = 0.202 | 1.508 | 0.9835
100000 kPa, Falling or rolling sphere viscometry, w1 = 0.3005 | 2.424 | 1.442
100000 kPa, Falling or rolling sphere viscometry, w1 = 0.3995 | 3.881 | 2.113

mass density [kg/m3]
Settings | w1 = 0.1005 | w1 = 0.202 | w1 = 0.3005 | w1 = 0.3995
313.15 K, 30000 kPa | 999.4 | 994.8 | 990.3 | 984.4
313.15 K, 40000 kPa | 1003.4 | 998.6 | 994 | 988.2
313.15 K, 50000 kPa | 1007 | 1002.1 | 997.5 | 991.7
313.15 K, 60000 kPa | 1010.8 | 1005.6 | 1001 | 995.3
313.15 K, 70000 kPa | 1014.5 | 1009.1 | 1004.4 | 998.7
313.15 K, 80000 kPa | 1018 | 1012.5 | 1007.6 | 1002
313.15 K, 90000 kPa | 1021.4 | 1015.7 | 1010.9 | 1005.3
313.15 K, 100000 kPa | 1024.9 | 1019.1 | 1014.1 | 1008.5
313.15 K, 110000 kPa | 1028.3 | 1022.3 | 1017.3 | 1011.7
313.15 K, 120000 kPa | 1031.6 | 1025.6 | 1020.4 | 1014.7
313.15 K, 130000 kPa | 1035 | 1028.6 | 1023.4 | 1017.7
313.15 K, 140000 kPa | 1038.2 | 1031.7 | 1026.4 | 1020.7
333.15 K, 100 kPa | 977.4 | 971.5 | 965.2 | 957.4
333.15 K, 500 kPa | 977.6 | 971.8 | 965.4 | 957.6
333.15 K, 1000 kPa | 977.8 | 972 | 965.6 | 957.9
333.15 K, 2000 kPa | 978.2 | 972.4 | 966.1 | 958.3
333.15 K, 5000 kPa | 979.5 | 973.7 | 967.3 | 959.6
333.15 K, 10000 kPa | 981.5 | 975.7 | 969.5 | 961.8
333.15 K, 15000 kPa | 983.6 | 977.7 | 971.5 | 963.9
333.15 K, 20000 kPa | 985.6 | 979.7 | 973.5 | 966
333.15 K, 30000 kPa | 989.7 | 983.7 | 977.5 | 970.2
333.15 K, 40000 kPa | 993.7 | 987.7 | 981.5 | 974.2
333.15 K, 50000 kPa | 997.3 | 991.3 | 985.2 | 977.9
333.15 K, 60000 kPa | 1001.1 | 995 | 988.9 | 981.7
333.15 K, 70000 kPa | 1004.9 | 998.6 | 992.5 | 985.4
333.15 K, 80000 kPa | 1008.4 | 1002.1 | 996 | 988.9
333.15 K, 90000 kPa | 1012 | 1005.4 | 999.2 | 992.3
333.15 K, 100000 kPa | 1015.4 | 1008.9 | 1002.7 | 995.8
333.15 K, 110000 kPa | 1018.9 | 1012.2 | 1006 | 999
333.15 K, 120000 kPa | 1022.3 | 1015.5 | 1009.3 | 1002.4
333.15 K, 130000 kPa | 1025.5 | – | – | –
